The values below come from the Deep4Chem optical property database.

The series in a line: photoluminescence quantum yield (fraction); solvent given as SMILES.

With `CC(C)(C)c1cc(/C2=C3\C=CC(=N3)/C(c3ccc([N+](=O)[O-])cc3)=c3/cc/c([nH]3)=C(\c3ccc([N+](=O)[O-])cc3)C3=N/C(=C(/c4cc(C(C)(C)C)cc(C(C)(C)C)c4)c4cc2c[nH]4)C=C3)cc(C(C)(C)C)c1`, the photoluminescence quantum yield (in CC(=O)N(C)C) was found to be 0.024.
`C(#Cc1cccs1)c1ncc(-c2ccccc2)o1` came in with a photoluminescence quantum yield (in ClCCl) of 0.
Still for that read-out and setting: then `CC(C)[Si](C#Cc1c2cc3ccccc3cc2c(C#Cc2ccc(C(F)(F)F)cc2)c2cc3ccccc3cc12)(C(C)C)C(C)C`, with 0.06.
For `COC(=O)c1cc(=O)n(C)c2cc(-c3ccc(N(C)C)cc3)sc12`, the photoluminescence quantum yield was found to be 0.08 (in CC#N) and 0.82 (in ClCCl).
`CCCCC(CC)COc1cc(OCC(CC)CCCC)c2c#cc3ccc4c(c3)c3cc(c#cc5cc(c#cc6ccc7c(c6)c6cc(c#cc1c2)ccc6n7CC(CC)CCCC)c(C(CCCC)OCCC)cc5C(CCCC)OCCC)ccc3n4CC(CC)CCCC` (centres undefined) had a photoluminescence quantum yield (in ClCCl) of 0.32.
As to `COc1ccc(-c2csc(/C(C#N)=C/c3ccncc3)n2)cc1`, the photoluminescence quantum yield reads like this: (in CC#N) 0.04; (in CCO) 0.002; (in CN(C)C=O) 0.016; (in CS(C)=O) 0.038; (in Cc1ccccc1) 0.285; (in ClCCl) 0.129.
In turn, `CNc1cccc2c1C(=O)c1ccccc1C2=O` gave a photoluminescence quantum yield (in C1CCC2CCCCC2C1) of 0.014; a photoluminescence quantum yield (in C1CCCCC1) of 0.0135; a photoluminescence quantum yield (in CC1CCCCC1) of 0.0138; a photoluminescence quantum yield (in CC#N) of 0.0026; a photoluminescence quantum yield (in CCC(C)CC) of 0.0136; a photoluminescence quantum yield (in CCCCCC) of 0.0136. The photoluminescence quantum yield (in CCOC(C)=O) stood at 0.0048.
Take `CCC1(CC)c2ccccc2-c2c1c1c(c3c2C(CC)(CC)c2cc(N(c4ccccc4)c4ccccc4)ccc2-3)C(CC)(CC)c2ccccc2-1`: the photoluminescence quantum yield (in C1CCOC1) amounted to 0.49.
On to `CCN(CC)c1ccc([N+]2=Cc3ccc4c5c(ccc4c3O[B-]2(c2ccccc2)c2ccccc2)C=[N+](c2ccc(N(CC)CC)cc2)[B-](c2ccccc2)(c2ccccc2)O5)cc1`, for which the photoluminescence quantum yield by setting is: (in Cc1ccccc1) 0.4; (in ClCCl) 0.29.
With `CN(C)c1ccc(C(=O)Nc2cccc(Cl)c2)cc1`, the photoluminescence quantum yield was determined as 0.0031 (in C1CCCCC1), 0.0263 (in C1CCOC1), 0.0319 (in CC#N) and 0.0103 (in CCOCC).
`Cc1c(C)c2c3ccccc3[nH]c2c2ccccc12` displayed a photoluminescence quantum yield (in ClCCl) of 0.156.
`N#Cc1c(/C=C/c2ccc(N(c3ccccc3)c3ccccc3)cc2)cc(-c2ccccc2)cc1N1CCCCC1` had a photoluminescence quantum yield (in CS(C)=O) of 0.6.
In the case of `CCOC(=O)COc1ccc(/C=C/c2c(CC)c(C)c3n2[B-](F)(F)[N+]2=C(c4[nH]c(C)c(CC)c4C)c4ccccc4C2=C3C)cc1`, the photoluminescence quantum yield is, setting by setting: (in C1CCOC1) 0.28; (in CC#N) 0.09; (in CCCCCC) 0.74; (in CO) 0.2; (in Cc1ccccc1) 0.71; (in ClCCl) 0.68.
On to `c1ccc(-c2nc(-c3ccccc3)n3ccccc23)cc1`, for which the photoluminescence quantum yield was 0.14 (in ClC(Cl)Cl) and 0.217 (in ClCCl).
`CCCCOC(=O)c1cc(Cl)c2c3c(Cl)cc4c5c(cc(Cl)c(c6c(Oc7ccc(OC)cc7)cc(C(=O)OCCCC)c1c26)c53)C(=O)N(c1c(C(C)C)cccc1C(C)C)C4=O` returned a photoluminescence quantum yield (in Cc1ccccc1) of 0.12.
Under “in C1CCOC1”, `C(=C1c2ccccc2-c2ccccc21)c1ccc(-c2ccc(C=C3c4ccccc4-c4ccccc43)cc2)cc1` registered a photoluminescence quantum yield of 0.0015.
Where the note is “in CCO”, `Cc1cc(=O)oc2ccc3ccc(-c4cn(Cc5ccccc5)nn4)cc3c12` displayed a photoluminescence quantum yield of 0.35.
On to `CCCCCCCCN1c2ccc(C#Cc3cc(C(F)(F)F)cc(C(F)(F)F)c3)cc2Sc2cc(C=O)ccc21`, for which the photoluminescence quantum yield reads like this: (in C1CCOC1) 0.53; (in CC#N) 0.53; (in CCCCCC) 0.6; (in CO) 0.11; (in CS(C)=O) 0.77; (in Cc1ccccc1) 0.67. The same compound gave a photoluminescence quantum yield (in ClC(Cl)Cl) of 0.63.
For the setting “in ClCCl”, `O=[N+]([O-])c1ccc([N+]2=Cc3ccc4ccccc4c3O[B-]2(F)F)cc1` registered a photoluminescence quantum yield of 0.9.
Compound `CCCCCCCCOc1ccc(-c2c3c4n(c(-c5ccc(OCCCCCCCC)cc5)c3c3n2[B-](F)(F)[n+]2c(ccc5cc(C(C)(C)C)ccc52)C=3C#N)[B-](F)(F)[n+]2c(ccc3cc(C(C)(C)C)ccc32)C=4C#N)cc1` had a photoluminescence quantum yield (in ClC(Cl)Cl) of 0.59.
As to `COc1ccc2c(-c3nc(-c4cccc(C)c4)no3)cc(=O)oc2c1`, the photoluminescence quantum yield was 0.52 (in CCO) and 0.12 (in ClC(Cl)Cl).
As to `CCCN1/C(=C/C=C(/C=C/C2=[N+](CCC)c3ccccc3C2(C)C)c2cc[n+](C)cc2)C(C)(C)c2ccccc21`, the photoluminescence quantum yield was 0.14 (in CO), 0.12 (in CS(C)=O) and 0.02 (in O).
With `COc1ccc(/C=C/C2=CC(/C=C/c3ccc(OC)cc3)=[N+]3C2=C(c2ccc(-c4ccc5ccccc5n4)s2)c2c(/C=C/c4ccc(OC)cc4)cc(/C=C/c4ccc(OC)cc4)n2[B-]3(F)F)cc1`, the photoluminescence quantum yield (in C1COCCO1) was found to be 0.36.
Regarding `C(#Cc1ccc(N(c2ccc(C#Cc3ccc(-c4cc(-c5ccccc5)nc(-c5ccccc5)c4)cc3)cc2)c2ccc(C#Cc3ccc(-c4cc(-c5ccccc5)nc(-c5ccccc5)c4)cc3)cc2)cc1)c1ccc(-c2cc(-c3ccccc3)nc(-c3ccccc3)c2)cc1`, the photoluminescence quantum yield was found to be 0.12 (in C1CCOC1) and 0.16 (in Cc1ccccc1).
For `Cc1ccc(-c2nc3c([nH]2)C2=CC(=O)S[C@]2(C)[C@@]2(C)SC(=O)C=C32)cc1`, the photoluminescence quantum yield (in CC#N) amounted to 0.14.
Turning to `C[Si]1(C)O[Si](C)(C)c2cc3nc4ccc([N+](=O)[O-])cc4c(-c4ccccc4)c3cc2[Si](C)(C)O1`, for the setting “in ClCCl”, the photoluminescence quantum yield worked out at 0.44.
Compound `N#C/C(=C\c1ccc(C#N)cc1)c1nc(-c2ccc(Cl)cc2)c(-c2ccccc2)s1` returned a photoluminescence quantum yield (in CC#N) of 0.114.
`CCN(CC)c1ccc(/C=N/c2ccccc2/N=C/c2ccc(N(CC)CC)cc2O)c(O)c1`: where the note is “in CC#N”, the photoluminescence quantum yield is 0.22.
For `CCn1c2ccccc2sc2c(C#N)c3oc4ccccc4oc3c(C#N)c21`, the photoluminescence quantum yield (in ClC(Cl)Cl) amounted to 0.23.
`COc1ccc(-c2c3ccc(=[N+]4CCCCC4)cc-3oc3cc(N4CCCCC4)ccc23)cc1`: the photoluminescence quantum yield runs as follows: (in CCO) 0.31; (in ClCCl) 0.91.
On to `CCNc1cc2oc(=O)c3c(=O)oc4ccccc4c3c2cc1C`, for which the photoluminescence quantum yield was 0.27 (in CS(C)=O) and 0.84 (in ClCCl).
Regarding `N#Cc1cc(C#N)c(-c2ccc(N(c3ccccc3)c3ccccc3)cc2)cc1-c1ccc(N(c2ccccc2)c2ccccc2)cc1`, the photoluminescence quantum yield (in C1CCCCC1) came out at 0.75.
`COc1cc(OC)cc(C2=[O+][B-](F)(F)OC(c3ccc4ccccc4c3)=C2)c1` returned a photoluminescence quantum yield (in CC#N) of 0.01; a photoluminescence quantum yield (in CC(C)=O) of 0.01; a photoluminescence quantum yield (in CCCCCC) of 0.19; a photoluminescence quantum yield (in Cc1ccccc1) of 0.1; a photoluminescence quantum yield (in ClCCl) of 0.05.
On to `CCCCCCCCOc1cc(/C=C/c2ccncc2)c(OCCCCCCCC)cc1/C=C/c1ccncc1`, for which the photoluminescence quantum yield (in ClCCl) was 0.634.
Still for that read-out and setting: the figure for `CCN(CC)c1ccc2c(-c3ccccc3C(=O)O)c3c([o+]c2c1)/C(=C/c1ccc(N(C)C)cc1)CCC3` is 0.04.
Regarding `COc1c2ccccc2c(OC)c2c1c1cc(F)ccc1n2C`, the photoluminescence quantum yield by setting is: (in C1CCCCC1) 0.39; (in CC#N) 0.34; (in CO) 0.33; (in ClCCl) 0.37.
On to `Cc1ccc2nc3c(=O)[nH]c(=O)[nH]c3nc2c1C`, for which the photoluminescence quantum yield (in CC#N) came to 0.019.
As for `CCC(C)(C)c1ccc(-c2ccc3c(c2)C(CCOC)(CCOC)c2cc(C(C)(C)CC)ccc2-3)cc1`, the photoluminescence quantum yield (in C1CCCCC1) is 0.71.
For the setting “in CO”, `Cc1cc(C)c(B(c2ccsc2-c2sccc2P(=O)(c2ccccc2)c2ccccc2)c2c(C)cc(C)cc2C)c(C)c1` registered a photoluminescence quantum yield of 0.52.
For the setting “in Cc1ccccc1”, `[O-]c1ccccc1-c1[nH+]c2c3ccccc3c3ccccc3c2n1-c1ccccc1` gave a photoluminescence quantum yield of 0.191.
In turn, `CCCC1=CC2=C(c3c(C)cc(C)cc3C)c3cc(CCC)c(-c4ccc5ccc6cccc7ccc4c5c67)n3[B-](F)(F)[N+]2=C1c1ccc2ccc3cccc4ccc1c2c34` showed a photoluminescence quantum yield (in ClC(Cl)Cl) of 0.64.
Regarding `CC/[NH+]=c1\cc2oc3cc(NCCNC(=O)C(NC(=O)OC(C)(C)C)C(C)C)c4ccccc4c3nc-2cc1C` (centres undefined), the photoluminescence quantum yield was found to be 0.35 (in CCO) and 0.48 (in O).
The compound `CCCCc1ccc(-n2c3c(c4c2c2c(n4-c4ccc(CCCC)cc4)-c4cc(F)ccc4NB2c2ccccc2)B(c2ccccc2)Nc2ccc(F)cc2-3)cc1` displayed a photoluminescence quantum yield (in Cc1ccccc1) of 0.64.
In the case of `COc1ccc(C2=CC(c3ccc4cc(N(C)C)ccc4c3)=[O+][B-](F)(F)O2)cc1`, the photoluminescence quantum yield was 0.52 (in C1CCOC1); 0.01 (in CC#N); 0.12 (in CC(C)=O); 0.007 (in CS(C)=O); 0.95 (in Cc1ccccc1); 0.99 (in ClC(Cl)Cl). The compound also displayed a photoluminescence quantum yield (in ClCCl) of 0.62.
As to `CN(C)c1ccc(C2=Nc3sc4cc(F)ccc4[n+]3[B-](F)(F)O2)cc1`, the photoluminescence quantum yield reads like this: (in C1CCOC1) 0.72; (in CC#N) 0.13; (in CC(C)=O) 0.23; (in Cc1ccccc1) 0.85; (in ClCCl) 0.74.
For `CC(C)(C)c1cc2c3c(c1)-c1cccc4c1N(B3N1c3ccccc3Sc3cccc-2c31)c1ccccc1S4`, the photoluminescence quantum yield (in C1CCOC1) worked out at 0.05.
In the case of `CC1(C)C(/C=C/C2=C(Oc3ccc(CCN=C=S)cc3F)C(=C/C=C3/N(CCCS(=O)(=O)[O-])c4ccccc4C3(C)C)/CCC2)=[N+](CCCS(=O)(=O)[O-])c2ccccc21`, under “in CO”, the photoluminescence quantum yield was found to be 0.14.
